Assay [1] concerns muscle progenitors (hMP) from DMD hiPSC or WT hiPSC. Kind of assay: Myotube assay: myogenic activity (total myotube area per well). The class given is cell-based, human. Particulars: Homo sapiens, 72 h, myotube assay, compounds incubated 3 days; for Emax: read-out: MA (normalized Myotube Area, efficacy); for EC50: 10 points dose-response 1.5 nM to 30 μM, read-out: EC50 (myogenic activity, half-maximal generation of myotubes). Here is the method: An in vitro assay for assessing the efficacy of compounds for use in treating, ameliorating, delaying, curing and/or preventing a disease or condition associated with muscle cells and/or satellite cells is described in example 78. Herein, the generation of myotubes and satellite cells after adding a compound to a myotube assay workflow is assessed. Said myotube assay workflow is derived from wild-type or DMD human induced pluripotent stem cells (WT hiPSC or DMD hiPSC). Before the addition of said compound, the assay comprises satellite-like cells, but no significant amount of myotubes.
(§1) The efficacy of said compound for use in treating, ameliorating, delaying, curing and/or preventing a disease or condition associated with muscle cells and/or satellite cells is positively correlated with the generation of myotubes (i.e. the increase of the area occupied by myotubes on the assay) and/or satellite cells (i.e. the increase of the number of satellite cells) in the assay after adding said compound. The generation of myotubes by the addition of said compound is expressed as the EC50 value, the concentration of said compound that corresponds with the half-maximal generation of myotubes, and the MA (normalized myotube area) value, the normalized area occupied by generated myotubes on the assay. […] Since muscle cells are formed from myotubes during myogenesis, the generation of myotubes in the assay is a good indicator of the ability of said compound to induce the formation of functional muscle cells in vivo. The number of satellite cells is measured as the percentage of Pax7 positive cells, relative to the total number of cells in the assay, as shown in FIG. 3. The percentage of Pax7 is a good indicator of the ability of said compound to induce the formation of satellite cells which are able to play a role in muscle repair and regeneration in vivo.
(§2) DMD human induced pluripotent stem cells (hereafter “DMD hiPSC”), generated from the NORM-1 hiPSC WT cell line by gene editing, or WT human induced pluripotent stem cells (hereafter “WT hiPSC”), being NORM-1 hiPSC wt cell line, have been differentiated according to Chal et al. 2015, 2016, to produce muscle progenitors (hereafter “hMP”). The hMP population contains satellite-like cells (i.e Pax7-positive cells) and satellite cells' progenies (i.e. Myogenin-positive cells).
(§3) FIG. 1 provides an example of a Myotube assay workflow. At day 0, hMP are thawed and 3.1 million cells are plated into a T75-flask coated with hESC-qualified Matrigel™ (Corning) in SkGM proliferating medium (PromoCells), supplemented with 5 μM Y-27632 (Tocris Bioscience). On day 2, SkGM proliferating medium is refreshed. On day 4, hMP are harvested and transferred into a 384-well plate coated with collagen type I at a density of 3500 cells/well in a DMEM-based medium, containing 5% of knockout serum replacement (Gibco), 1% PenStrep (Gibco), 1% MEM NEAA (Gibco) and 0.1 mM 2-mercaptoethanol (Gibco) (hereafter “K5 medium”) and 5 μM Y-27632. Compounds to be tested are then added in the medium and incubated for 3 days at 37° C. On day 7, cells are fixed and immunostained. For example, myotubes (alpha-actinin staining) and satellite-like (Pax7 staining) cells can be analyzed for total myotube area per well or Pax7-positive cell quantification.
DMD hMP were put in the Myotube assay according to the workflow described in Example 2.1. In particular, compound (i) was added at concentrations ranging from 1.5 nM to 30 μM, starting from day 4. hMP were cultivated for three more days in presence of compound (i), then fixed and analyzed for quantification of total myotube area per well. Duplicates of each condition were averaged.
Qualitative scale: ++++: EC50<500 nM; +++: 500 nM≤EC50<1000 nM; ++: 1000 nM≤EC50<5000 nM; +: EC50≥5000 nM; +++: MA≥75%; ++: 50%≤MA<75%; +: 25%≤MA<50%.

For assay [2], the system named is satellite-like cells (Pax7-positive cells) in hMP. Kind of assay: Myotube assay: Pax7-positive (satellite-like) cell quantification. The class given is cell-based, human. Set-up: key to Pax7% (pool of Pax7-positive cells) / Pax7: −: Depletes the pool of cells, while positively affects the myotubes; +: Maintains or increases the pool of cells, with at least 1 of the highest concentration known to be cytotoxic; ++: Maintains or increases the pool of cells, without any toxicity. Particulars: myotube assay, compounds incubated 3 days.
Source text: as §1, §2, §3
DMD hMP were put in the Myotube assay according to the workflow described in Example 2.1. In particular, compound (i) was added at concentrations ranging from 1.5 nM to 30 μM, starting from day 4. hMP were cultivated for three more days in presence of compound (i), then fixed and analyzed for percentage of Pax7-positive cells and nuclei number. Duplicates of each condition were averaged.
(−): Depletes the pool of cells, while positively affects the myotubes; (+): Maintains or increases the pool of cells, with at least 1 of the highest concentration known to be cytotoxic; and (++) Maintains or increases the pool of cells, without any toxicity.

Turning to `Cc1cc(NC(=O)Nc2ccc(Oc3ccnc4[nH]c(=O)cnc34)cc2F)n(-c2ccccc2)n1` [(a), 1-(2-fluoro-4-((3-oxo-3,4-dihydropyrido[2,3-b]pyrazin-8-yl)oxy)phenyl)-3-(3-methyl-1-phenyl-1H-pyrazol-5-yl)urea], in assay [1], the Emax is 25 to 50%. In addition, the “Pax7% (pool of Pax7-positive cells)” value in assay [2] is reported as “++”.

As for `CNC(=O)c1cc(Oc2cccc(NC(=O)Nc3cc(C(C)(C)C)nn3-c3ccccc3)c2)ccn1` [(aa), 4-(3-(3-(3-(tert-butyl)-1-phenyl-1H-pyrazol-5-yl)ureido)phenoxy)-N-methylpicolinamide], in assay [1], the EC50 fell in the range of 1000 to 5000 nM and the Emax was 50 to 75%. Besides, the “Pax7% (pool of Pax7-positive cells)” value in assay [2] is “++”.

Regarding `CNC(=O)c1ccc(Oc2cccc(NC(=O)Nc3cc(C(C)(C)C)nn3-c3ccccc3)c2)cn1` [(ab), 5-(3-(3-(3-(tert-butyl)-1-phenyl-1H-pyrazol-5-yl)ureido)phenoxy)-N-methylpicolinamide], in assay [1], the Emax is 50 to 75%. Also, the “Pax7% (pool of Pax7-positive cells)” value in assay [2] is listed as “++”.

Consider `CC(C)(C)c1cc(NC(=O)Nc2ccc(Oc3ccccc3)cc2F)n(-c2ccccc2)n1` [(ac), 1-(3-(tert-butyl)-1-phenyl-1H-pyrazol-5-yl)-3-(2-fluoro-4-phenoxyphenyl)urea], for which the Emax in assay [1] is 50 to 75%. The “Pax7% (pool of Pax7-positive cells)” value in assay [2] is recorded as “++”.

As to `CC(C)(C)c1cc(NC(=O)Nc2ccc(Oc3ccncc3)cc2F)n(-c2ccccc2)n1` [(ad), 1-(3-(tert-butyl)-1-phenyl-1H-pyrazol-5-yl)-3-(2-fluoro-4-(pyridin-4-yloxy)phenyl)urea], in assay [1], the Emax was 25 to 50%. For the same molecule, the “Pax7% (pool of Pax7-positive cells)” value in assay [2] was “++”.

Regarding `CC(=O)Nc1cc(Oc2ccc(NC(=O)Nc3cc(C(C)(C)C)nn3-c3ccccc3)c(F)c2)ccn1` [(ae), N-(4-(4-(3-(3-(tert-butyl)-1-phenyl-1H-pyrazol-5-yl)ureido)-3-fluorophenoxy)pyridin-2-yl)acetamide], the Emax in assay [1] is 50 to 75%. Besides, in assay [2], the “Pax7% (pool of Pax7-positive cells)” value is “+”.

Take `CC(C)(C)c1cc(NC(=O)Nc2ccc(Oc3ccc(F)cc3)cc2F)n(-c2ccccc2)n1` [(af), 1-(3-(tert-butyl)-1-phenyl-1H-pyrazol-5-yl)-3-(2-fluoro-4-(4-fluorophenoxy)phenyl)urea]: the Emax in assay [1] was 25 to 50%. Besides, the “Pax7% (pool of Pax7-positive cells)” value in assay [2] is reported as “++”.

In the case of `CNC(=O)c1cc(Oc2ccc(NC(=O)Nc3cc(C(C)(C)C)nn3-c3ccc4ncccc4c3)c(SC)c2)ccn1` [(ag), 4-(4-(3-(3-(tert-butyl)-1-(quinolin-6-yl)-1H-pyrazol-5-yl)ureido)-3-(methylthio)phenoxy)-N-methylpicolinamide], in assay [1], the Emax was ≥ 75%. In assay [2], the “Pax7% (pool of Pax7-positive cells)” value is “++”.

For the molecule `CSc1cc(Oc2ccnc3[nH]c(=O)cnc23)ccc1NC(=O)Nc1ncc(C(C)(C)C)s1` [(ah), 1-(5-(tert-butyl)thiazol-2-yl)-3-(2-(methylthio)-4-((3-oxo-3,4-dihydropyrido[2,3-b]pyrazin-8-yl)oxy)phenyl)urea], the Emax in assay [1] was ≥ 75%. Further, the “Pax7% (pool of Pax7-positive cells)” value in assay [2] was “++”.

As to `CNC(=O)c1cncc(Oc2ccc(NC(=O)Nc3cc(C(C)(C)C)nn3-c3ccccc3)c(SC)c2)c1` [(ai), 5-(4-(3-(3-(tert-butyl)-1-phenyl-1H-pyrazol-5-yl)ureido)-3-(methylthio)phenoxy)-N-methylnicotinamide], the Emax in assay [1] was in the range of 50 to 75%. Also, the “Pax7% (pool of Pax7-positive cells)” value in assay [2] was “++”.

For the molecule `COc1ccc(-n2nc(C(C)(C)C)cc2NC(=O)Nc2ccc(Oc3ccnc4[nH]c(=O)cnc34)cc2SC)cc1` [(aj), 1-(3-(tert-butyl)-1-(4-methoxyphenyl)-1H-pyrazol-5-yl)-3-(2-(methylthio)-4-((3-oxo-3,4-dihydropyrido[2,3-b]pyrazin-8-yl)oxy)phenyl)urea], in assay [1], the EC50 was 500 to 1000 nM and the Emax is ≥ 75%. Besides, the “Pax7% (pool of Pax7-positive cells)” value in assay [2] is on record as “++”.

`CC(C)(C)c1cc(NC(=O)Nc2ccc(Oc3ccnc4[nH]c(=O)cnc34)cc2Cl)n(-c2ccccc2)n1` [(ak), 1-(3-(tert-butyl)-1-phenyl-1H-pyrazol-5-yl)-3-(2-chloro-4-((3-oxo-3,4-dihydropyrido[2,3-b]pyrazin-8-yl)oxy)phenyl)urea]: the Emax in assay [1] is ≥ 75%. Besides, the “Pax7% (pool of Pax7-positive cells)” value in assay [2] is “+”.

On to `Cc1cc(Oc2ccnc3[nH]c(=O)cnc23)ccc1NC(=O)Nc1cc(C(C)(C)C)nn1-c1ccccc1` [(al), 1-(3-(tert-butyl)-1-phenyl-1H-pyrazol-5-yl)-3-(2-methyl-4-((3-oxo-3,4-dihydropyrido[2,3-b]pyrazin-8-yl)oxy)phenyl)urea], for which the Emax in assay [1] was ≥ 75%. The “Pax7% (pool of Pax7-positive cells)” value in assay [2] was “++”.

For the molecule `CCSc1cc(Oc2ccnc3[nH]c(=O)cnc23)ccc1NC(=O)Nc1cc(C(C)(C)C)nn1-c1ccccc1` [(am), 1-(3-(tert-butyl)-1-phenyl-1H-pyrazol-5-yl)-3-(2-(ethylthio)-4-((3-oxo-3,4-dihydropyrido[2,3-b]pyrazin-8-yl)oxy)phenyl)urea], in assay [1], the Emax was ≥ 75%. The “Pax7% (pool of Pax7-positive cells)” value in assay [2] was “++”.

As for `CSc1cc(Oc2ccnc3c2CCC(=O)N3)ccc1NC(=O)Nc1cc(C(C)(C)C)nn1-c1ccccc1` [(an), 1-(3-(tert-butyl)-1-phenyl-1H-pyrazol-5-yl)-3-(2-(methylthio)-4-((7-oxo-5,6,7,8-tetrahydro-1,8-naphthyridin-4-yl)oxy)phenyl)urea], in assay [1], the Emax is ≥ 75%. In addition, the “Pax7% (pool of Pax7-positive cells)” value in assay [2] is “++”.

For the molecule `CSc1cc(Oc2ccnc3[nH]c(=O)cnc23)ccc1NC(=O)Nc1cc(C(C)(C)C)nn1-c1ccc(Cl)cc1` [(ao), 1-(3-(tert-butyl)-1-(4-chlorophenyl)-1H-pyrazol-5-yl)-3-(2-(methylthio)-4-((3-oxo-3,4-dihydropyrido[2,3-b]pyrazin-8-yl)oxy)phenyl)urea], the Emax in assay [1] was ≥ 75%. Also, the “Pax7% (pool of Pax7-positive cells)” value in assay [2] was “++”.

Consider `CNC(=O)c1ccc(Oc2ccc(NC(=O)Nc3cc(C(C)(C)C)nn3-c3ccccc3)c(SC)c2)cn1` [(ap), 5-(4-(3-(3-(tert-butyl)-1-phenyl-1H-pyrazol-5-yl)ureido)-3-(methylthio)phenoxy)-N-methylpicolinamide], for which the Emax in assay [1] was in the range of 25 to 50%. Moreover, the “Pax7% (pool of Pax7-positive cells)” value in assay [2] was “++”.

Regarding `CSc1cc(Oc2ccnc(NC(C)=O)c2)ccc1NC(=O)Nc1cc(C(C)(C)C)nn1-c1ccccc1` [(aq), N-(4-(4-(3-(3-(tert-butyl)-1-phenyl-1H-pyrazol-5-yl)ureido)-3-(methylthio)phenoxy)pyridin-2-yl)acetamide], the Emax in assay [1] is ≥ 75%. Also, the “Pax7% (pool of Pax7-positive cells)” value in assay [2] was “+”.

The values are drawn from patent US20230089368A1, “POLYAROMATIC UREA DERIVATIVES AND THEIR USE IN THE TREATMENT OF MUSCLE DISEASES” (ANAGENESIS BIOTECHNOLOGIES S.A.S., priority 2019, published 2023).
